This is an account of results in ChEMBL document CHEMBL1131161 (J Med Chem, 1998).

For assay [1], the target named is T1, Glucocorticoid receptor (Homo sapiens, UniProt P04150).
T1 sequence (P04150 whole entry): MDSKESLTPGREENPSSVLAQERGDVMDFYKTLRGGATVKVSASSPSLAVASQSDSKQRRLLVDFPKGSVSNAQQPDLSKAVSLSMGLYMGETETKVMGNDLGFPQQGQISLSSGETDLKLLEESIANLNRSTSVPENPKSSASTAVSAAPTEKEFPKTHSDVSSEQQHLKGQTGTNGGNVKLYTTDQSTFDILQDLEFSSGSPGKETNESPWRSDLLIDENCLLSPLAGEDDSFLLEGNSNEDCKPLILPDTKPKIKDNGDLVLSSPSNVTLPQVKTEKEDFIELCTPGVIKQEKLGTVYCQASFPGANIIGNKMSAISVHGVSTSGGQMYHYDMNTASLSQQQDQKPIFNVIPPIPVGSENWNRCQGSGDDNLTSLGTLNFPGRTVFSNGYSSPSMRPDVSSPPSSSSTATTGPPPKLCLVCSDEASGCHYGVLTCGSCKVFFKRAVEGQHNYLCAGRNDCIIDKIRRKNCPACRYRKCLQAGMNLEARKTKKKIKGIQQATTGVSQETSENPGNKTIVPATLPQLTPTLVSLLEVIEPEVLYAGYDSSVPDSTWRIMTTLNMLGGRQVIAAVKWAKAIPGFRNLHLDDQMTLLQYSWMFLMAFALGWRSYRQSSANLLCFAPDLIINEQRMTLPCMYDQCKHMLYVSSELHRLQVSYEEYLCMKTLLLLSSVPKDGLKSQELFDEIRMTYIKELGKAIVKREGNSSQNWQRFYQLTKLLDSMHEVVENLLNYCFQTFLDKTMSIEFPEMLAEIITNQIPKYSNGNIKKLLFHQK
Description: Inhibitory activity (IC50) against human glucocorticoid receptor expressed in CV-1 cells

Assay [2] has as its system CV-1. The assay can be described thus: Inhibitory concentration was determined from full dose response curves ranging from 10 E -12 to 10 E -5M in CV-1 cell. It counts as functional, Cercopithecidae.
A further assay concerns the target Estrogen receptor (Homo sapiens, UniProt Q92731+P03372). To be noted: cv-1.
Assay [3] addresses T2, Progesterone receptor (Homo sapiens, UniProt P06401).
T2 sequence (P06401 whole entry): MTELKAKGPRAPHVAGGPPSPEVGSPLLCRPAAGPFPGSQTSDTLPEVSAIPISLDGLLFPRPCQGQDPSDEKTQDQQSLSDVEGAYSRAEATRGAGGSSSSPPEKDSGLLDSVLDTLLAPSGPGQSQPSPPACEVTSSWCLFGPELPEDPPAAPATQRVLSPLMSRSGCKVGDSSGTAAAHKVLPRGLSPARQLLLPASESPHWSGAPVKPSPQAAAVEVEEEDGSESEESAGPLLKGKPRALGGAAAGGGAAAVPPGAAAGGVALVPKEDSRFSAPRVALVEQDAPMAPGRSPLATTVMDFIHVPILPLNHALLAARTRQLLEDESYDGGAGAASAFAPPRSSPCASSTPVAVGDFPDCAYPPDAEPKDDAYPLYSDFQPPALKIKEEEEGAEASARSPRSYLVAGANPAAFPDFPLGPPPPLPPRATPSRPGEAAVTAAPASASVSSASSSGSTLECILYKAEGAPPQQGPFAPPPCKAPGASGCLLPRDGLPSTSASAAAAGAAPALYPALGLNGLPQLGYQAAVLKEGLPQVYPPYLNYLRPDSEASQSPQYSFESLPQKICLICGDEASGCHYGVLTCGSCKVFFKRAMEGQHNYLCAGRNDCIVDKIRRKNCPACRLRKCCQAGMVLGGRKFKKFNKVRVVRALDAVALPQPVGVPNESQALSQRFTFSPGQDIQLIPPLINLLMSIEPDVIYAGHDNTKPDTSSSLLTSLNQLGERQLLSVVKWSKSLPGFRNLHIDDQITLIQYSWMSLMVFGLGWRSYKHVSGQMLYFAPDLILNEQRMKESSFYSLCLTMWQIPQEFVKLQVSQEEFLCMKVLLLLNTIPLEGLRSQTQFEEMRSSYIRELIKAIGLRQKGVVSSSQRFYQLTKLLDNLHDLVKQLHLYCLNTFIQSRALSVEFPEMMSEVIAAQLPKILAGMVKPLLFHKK
The assay is described as follows: Binding affinity against human progesterone receptor.

Assay [4] deals with T3, Androgen receptor (Homo sapiens, UniProt P10275).
T3 sequence (P10275 whole entry): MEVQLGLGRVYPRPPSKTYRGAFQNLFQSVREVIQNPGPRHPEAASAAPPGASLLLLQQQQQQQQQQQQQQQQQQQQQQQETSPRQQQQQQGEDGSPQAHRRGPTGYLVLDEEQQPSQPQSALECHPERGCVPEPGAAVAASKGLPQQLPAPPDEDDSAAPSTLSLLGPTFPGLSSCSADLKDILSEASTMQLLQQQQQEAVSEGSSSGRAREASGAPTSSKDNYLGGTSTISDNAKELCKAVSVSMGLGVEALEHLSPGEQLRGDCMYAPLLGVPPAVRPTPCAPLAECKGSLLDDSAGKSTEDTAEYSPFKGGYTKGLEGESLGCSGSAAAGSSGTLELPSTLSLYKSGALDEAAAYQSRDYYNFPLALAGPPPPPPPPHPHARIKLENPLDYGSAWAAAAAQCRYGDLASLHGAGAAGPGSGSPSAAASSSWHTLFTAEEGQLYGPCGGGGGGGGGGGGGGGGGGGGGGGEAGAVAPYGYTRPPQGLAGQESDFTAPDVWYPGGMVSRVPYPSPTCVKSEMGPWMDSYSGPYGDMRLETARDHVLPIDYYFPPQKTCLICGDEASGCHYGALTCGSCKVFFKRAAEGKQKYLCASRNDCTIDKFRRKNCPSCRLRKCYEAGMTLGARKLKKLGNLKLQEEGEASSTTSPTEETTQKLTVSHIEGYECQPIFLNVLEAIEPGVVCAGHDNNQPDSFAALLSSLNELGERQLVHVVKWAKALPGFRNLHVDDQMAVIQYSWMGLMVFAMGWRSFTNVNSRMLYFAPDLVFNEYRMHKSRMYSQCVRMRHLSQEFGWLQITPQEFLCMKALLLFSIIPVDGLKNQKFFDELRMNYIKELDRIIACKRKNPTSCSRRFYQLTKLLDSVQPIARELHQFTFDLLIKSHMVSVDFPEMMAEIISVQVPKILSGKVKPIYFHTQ
Description: Binding affinity against human androgen receptor

The target of assay [5] is T1, Glucocorticoid receptor. The assay is described as follows: biochemical.
Description: Binding affinity against human glucocorticoid receptor expressed in SF-12 cells
The target of assay [6] is T2, Progesterone receptor. The assay can be described thus: Effective concentration (EC50) against human progesterone receptor expressed in CV-1 cell. It counts as functional, cell-based.
In assay [7] the target is T3, Androgen receptor. This is another data set of the same source.
Description: Inhibitory activity (IC50) against human androgen receptor expressed in CV-1 cells
Assay [8] relates to CV-1. The assay is described as follows: Inhibitory concentration in CV-1 cell. It counts as functional, cell-based, Cercopithecidae. To be noted: Chlorocebus aethiops.
Assay [9] deals with T4, Mineralocorticoid receptor (Homo sapiens, UniProt P08235).
T4 sequence (P08235 whole entry): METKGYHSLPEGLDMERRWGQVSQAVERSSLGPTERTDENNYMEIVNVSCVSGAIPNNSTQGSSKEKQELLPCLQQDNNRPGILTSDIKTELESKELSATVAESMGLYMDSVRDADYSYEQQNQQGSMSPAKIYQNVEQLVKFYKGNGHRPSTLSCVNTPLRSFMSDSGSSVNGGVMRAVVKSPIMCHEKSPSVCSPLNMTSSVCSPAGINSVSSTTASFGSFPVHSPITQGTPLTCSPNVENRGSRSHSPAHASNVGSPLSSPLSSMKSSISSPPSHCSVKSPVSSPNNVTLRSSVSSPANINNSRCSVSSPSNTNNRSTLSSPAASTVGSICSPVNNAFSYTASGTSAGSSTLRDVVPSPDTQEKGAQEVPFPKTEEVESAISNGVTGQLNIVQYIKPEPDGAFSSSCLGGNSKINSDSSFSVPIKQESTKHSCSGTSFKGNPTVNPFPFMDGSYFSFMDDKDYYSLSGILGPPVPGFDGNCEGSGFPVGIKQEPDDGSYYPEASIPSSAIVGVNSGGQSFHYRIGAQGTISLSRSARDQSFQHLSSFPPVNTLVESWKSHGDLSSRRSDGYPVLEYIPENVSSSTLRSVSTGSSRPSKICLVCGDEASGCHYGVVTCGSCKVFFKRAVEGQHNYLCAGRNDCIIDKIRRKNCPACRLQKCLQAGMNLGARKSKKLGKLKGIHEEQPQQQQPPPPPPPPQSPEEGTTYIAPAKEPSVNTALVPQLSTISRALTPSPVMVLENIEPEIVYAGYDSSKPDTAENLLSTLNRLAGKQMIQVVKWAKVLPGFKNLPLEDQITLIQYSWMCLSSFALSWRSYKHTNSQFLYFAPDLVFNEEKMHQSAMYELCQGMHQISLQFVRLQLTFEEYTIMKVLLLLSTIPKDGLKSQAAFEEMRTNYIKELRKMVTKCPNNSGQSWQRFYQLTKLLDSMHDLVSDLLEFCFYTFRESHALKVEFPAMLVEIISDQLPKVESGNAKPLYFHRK
The assay is described as follows: Inhibitory activity (IC50) against human mineralocorticoid receptor expressed in CV-1 cells. It counts as functional, cell-based.

Assay [10] deals with CV-1. The assay is described as follows: inhibitory concentration was determined from full dose response curves ranging from 10 E -12 to 10 E -5M in CV-1 cell. To be noted: Chlorocebus aethiops. It counts as functional, cell-based, Cercopithecidae.

Description for Estrogen receptor: IC50 determined against human estrogen receptor in CV-1 cells

On to `CC(=O)O[C@]1(C(C)=O)CC[C@H]2[C@@H]3C[C@H](C)C4=CC(=O)CC[C@]4(C)[C@H]3CC[C@@]21C` [MEDROXYPROGESTERONE ACETATE], for which the results for the IC50 at Glucocorticoid receptor [1] and in the assay on CV-1 [2] were 10 nM and greater than 10000 nM, respectively.
Take `CC1=CC(C)(C)Nc2ccc3c(c21)/C(=C/c1ccccc1)Oc1ccccc1-3`: the 50% inhibitory concentration (IC50) is greater than 10000 nM on Estrogen receptor; 737 nM on Glucocorticoid receptor [1]; 650 nM on Androgen receptor [7]; greater than 10000 nM in the assay with CV-1 [8]; 3000 nM in [9]. For the same compound, the inhibition constant Ki stood at 4.9 nM on Progesterone receptor [3], 2660 nM on Androgen receptor [4] and 299 nM at Glucocorticoid receptor [5]. The compound also displayed an EC50 at Progesterone receptor [6] of 24.4 nM.
For the compound `CC1=CC(C)(C)Nc2ccc3c(c21)/C(=C/c1cccc(F)c1)Oc1ccccc1-3`, the IC50 was greater than 10000 nM on Estrogen receptor; 458 nM against Glucocorticoid receptor [1]; 795 nM at Androgen receptor [7]; greater than 10000 nM in the assay with CV-1 [8]; greater than 10000 nM in [9]. Also, the Ki worked out at 0.83 nM on Progesterone receptor [3], 798 nM on Androgen receptor [4] and 180 nM at Glucocorticoid receptor [5]. The compound also returned an EC50 on Progesterone receptor [6] of 7.6 nM.
In the assay on CV-1 [10], `CC(=O)[C@H]1CC[C@H]2[C@@H]3CCC4=CC(=O)CC[C@]4(C)[C@H]3CC[C@]12C` [PROGESTERONE] came in with a 50% inhibitory concentration (IC50) greater than 10000 nM.

The term IC50 denotes the midpoint of a concentration-inhibition curve. Read a low IC50 as greater potency. A word on the Ki: it is the dissociation constant of the complex between target and ligand, obtained from inhibition or displacement. A higher Ki goes with lower affinity. The EC50 is the concentration giving half of the maximal effect.
